The values below come from patent publication US20230075925A1, “NON-PERIPHERAL QUATERNARY AMMONIUM-MODIFIED ZINC PHTHALOCYANINE AND PREPARATION METHOD AND USE THEREOF” (FUZHOU UNIVERSITY, priority 2020, published 2023).

Data set [1] deals with melanoma cells B16-F10 tumors (proximal and distal). The data set is described as follows: PDT / anti-PD-L1 combination therapy in bilateral B16-F10 tumor-bearing mouse model (tumor inhibition rate). The class given is in vivo. Conditions: for tumor inhibition rate on proximal tumors (illuminated tumors): PDT group (phthalocyanine+illumination), 100 μL of 200 μM, 685 nm 15 mW/cm^2 5 min, 14 days. Here is the method: A bilateral tumor-bearing mouse model of melanoma cells B16-F10 (proximal and distal) was established. During PDT, the proximal referred to an illuminated side, and the distal referred to a non-illuminated side. The distribution and metabolism of photosensitizers in the tumor-bearing mouse were investigated by a small animal fluorescence imager and a tissue extraction method, and PDT was conducted under optimal conditions. The following 5 groups of experiments were set up, with 5 mice in each group: a PBS control group; an anti-PD-L1 antibody treatment group; a simple phthalocyanine (no illumination) treatment group; a phthalocyanine+illumination treatment group, namely a PDT group; and a phthalocyanine+illumination+anti-PD-L1 antibody treatment group, namely a combination therapy group. The anti-PD-L1 antibody was purchased from BioX cell.
In the combination therapy group, the PDT group and the simple photosensitizer group, 100 μL of a phthalocyanine compound (at a concentration of 200 μM, diluted with 0.5% CEL) was administered to each mouse. The combination therapy group and the PDT group were irradiated by a laser with a wavelength of 685 nm (at an irradiation power of 15 mW/cm^2 for 5 min) on the right tumor (proximal tumor) 8 h to 12 h after the administration. The combination therapy group was administered at 50 μg of PD-L1 antibody/mouse immediately after laser treatment, and the antibody group was administered 50 μg of PD-L1 antibody/mouse at the same time. One treatment was given on the first and fourth day separately.
From the first treatment, a body weight and a tumor volume of all mice were measured every other day, and a tumor size was calculated according to a formula: tumor volume=tumor length×width×height×π/6; after 14 consecutive days of observation, a tumor inhibition rate of each experimental group was calculated.

Data set [2] relates to B16-F10 cells. The data set is described as follows: Tumor recurrence (immune memory) after re-injection of B16-F10 cells following combination therapy. The class given is in vivo, ICR mouse. As to conditions: combination with PD-L1 antibody; 1×10^6 B16-F10 cells injected on 7th day after therapy, observed 21 d, 5 mice. From the text: More importantly, the mice treated with a combination of the zinc phthalocyanine in Example 1 and the PD-L1 antibody have an immune memory effect, which can effectively prevent tumor recurrence. On a 7th day after the combination therapy of zinc phthalocyanine in Example 1 and PD-L1 antibody, 1×10^6 B16-F10 cells were subcutaneously injected into a left ventral side of each ICR mouse (5 mice in each group), and the mice were continued to be observed for 21 d. […] However, the mice in remaining control groups are observed to have obvious melanoma regrowth, and no ability is observed to prevent tumor recurrence.

Data set [3] concerns human cervical cancer cells Hela. As to the kind of experiment: Dark toxicity and photodynamic activity on Hela cells (MTT cell viability). As to conditions: 4 μM. It is filed as cell-based. Here is the method: The non-peripheral quaternary ammonium-modified zinc phthalocyanine prepared in Example 1 was dissolved in a 1% castor oil derivative (Cremophor EL, wt %) aqueous solution to prepare a 0.1 mM photosensitizer. The dark toxicity and photodynamic activity of the photosensitizer were tested on human cervical cancer cells Hela.
0.1 mM or 0.2 mM of the photosensitizer was diluted into a cell medium to prepare a cell medium containing zinc phthalocyanine complexes at different concentrations. The cancer cells were cultured in the medium containing different concentrations of zinc phthalocyanine complexes for 2 h; after staining, the medium was discarded; and after washing with PBS, the cells were added into a new medium (without zinc phthalocyanine complexes). Illumination experiment group: the cells were irradiated with red light for 30 min at a power of irradiated light at 15 mW cm^−2 using red light with a wavelength greater than 600 nm as an excitation light source; non-illumination control group: the cells were placed in the dark for 30 min. After illumination or non-illumination, a cell viability was examined by MTT. The specific experimental steps referred to “Bioorganic & Medicinal Chemistry Letters, 2006, 16, 2450-2453”. […]

Consider “1-[4-(aminoethyl)phenoxy] zinc phthalocyanine [Comparative Example 1, reference compound]”, for which, in data set [1], the “tumor inhibition rate on proximal tumors (illuminated tumors)” value is 69%.

For `C[N+](C)(C)CCc1ccc(Oc2cccc3c4nc5nc(nc6nc(nc7[n-]c(nc([n-]4)c23)c2ccccc72)-c2ccccc2-6)-c2ccccc2-5)cc1.[I-].[Zn+2]` [Example 1, 1-[4-(N,N,N-trimethyl-2-aminoethyl)phenoxy] zinc phthalocyanine iodide], the “effective rate in preventing recurrence” value in data set [2] came to 80%. Further, the “cancer cells killed under red light irradiation” value in data set [3] (red light 15 mW cm^−2 for 30 min) was 100%. Besides, the “dark toxicity (killing and growth inhibition of Hela cells without irradiation)” value in data set [3] (without irradiation, 2 h incubation) was “no dark toxicity”. The “tumor inhibition rate on proximal tumors (illuminated tumors)” value in data set [1] is listed as 51%. Further, the “tumor inhibition rate on distal tumors (unilluminated tumors)” value in data set [1] (combination therapy group: phthalocyanine+illumination+anti-PD-L1 antibody (50 μg/mouse)) turned out to be 90%. Besides, the “effect on in situ tumors” value in data set [1] (combined with immune checkpoint blocker PD-L1 antibody) is recorded as “completely remove in situ tumors”.
